Laboratory results from patent US10993983B2, “Cyclic peptide epitopes and small-molecule mimics for inducing autophagy” (TRUSTEES OF TUFTS COLLEGE, priority 2016, dated 2021).
*1 amine or outer side, *2 acyl side, *3 side chain or, on linkers, in order; H or OH if unused. Where a SMILES comes first, the peptide text is derived from it. Bridges are numbered along the chain shown (N, C = ends). [ ]: non-standard residue; d: D form. The star is where a group is joined. NH(CH2CH2O)2(CH2)6Cl = ClCCCCCCOCCOCCN*; oXylylene = c1ccc(C[*:2])c(C[*:1])c1; Suc = O=C(CCC(=O)[*:2])[*:1]; Carboxymethyl = O=C(O)C*

Key:
[1] = tested on: HaLo-GFP-Mito+mCherry-DHFR HeLa cells; test: Chloroalkane Penetration Assay (CAPA); format: in vitro ADME; conditions: flow cytometry
From the text: FIGS. 19A-19C. Chloroalkane Penetration Assay quantitates relative cytosolic access of exogenously added DD5-o. 19A. Schematic showing the experimental procedure of CAPA, which uses a HaloEnzyme-GFP-expressing HeLa cell line. […] For CAPA, cells are pre-treated with vehicle or peptide, washed, and chased with HTag-TAMRA. Cells treated with cell-penetrant molecules have had their Haloenzyme blocked, thus preventing the HTag-TAMRA from covalently labeling the cells. 19B. Representative images of cells after CAPA, showing Haloenzyme-GFP fluorescence, Halotag-TAMRA fluorescence and the overlay of the two. […] 19C. […]
The Chloroalkane Penetration Assay is described in detail in U.S. Provisional Application No. 62/424,955, filed Nov. […] Following this incubation period, the amount of unreacted Haloenzyme was measured by chasing with a Haloligand-bearing dye (here, Htag-TAMRA). The relative amount of red cellular fluorescence after this chase was then quantified by flow cytometry. […] We evaluated CAPA with HTag-cTMP, a small molecule previously used as a tool for cytosolic protein localization.^71 As quantitated by flow cytometry, we observed inhibition of the HTag-TAMRA signal when cells were pre-incubated with HTag-cTMP, and this inhibition was dose-dependent with respect to amount of the HTag-cTMP used in the pre-incubation step. […]

[2] = tested on: GFP-LC3 transgenic mice; conditions: background; 20 mg/kg; cited from earlier work
[3] = tested on: HeLa cells; test: Autophagy induction judged by p62 and LC3 immunoblots together; format: cell-based; conditions: HeLa cells, immunoblot, 3 hour treatment
Summary of the method: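 HeLa cells exposed to peptide (acetyl N-cap, C-terminal amide) for 3 h in acidified OPTI-MEM, then lysed and immunoblotted for p62 and LC3. Activity is the lowest concentration giving both p62 degradation and LC3-I to LC3-II conversion, scored semi-quantitatively.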

[4] = tested on: HeLa-htt103Q cells; conditions: 20 μM; previously shown; cited from earlier work
[5] = tested on: HeLa-htt103Q cells; test: Htt aggregate assay; format: cell-based; conditions: 12.5 μM
Protocol: Along with proteasomal degradation, autophagy is the major pathway by which aggregated proteins are removed from the cytoplasm.
HeLa-htt103Q cells were cultured as described previously.^60 For the Htt103Q aggregate assay, cells were fixed with 2% PFA in PBS and CFP-positive aggregates […] were counted via fluorescence microscopy by an observer blinded to experimental condition.

[6] = background; cited from earlier work

Row | Molecule | inhibition of HTag-TAMRA fluorescence (cytosolic access), result in words [1] | autophagy induction in mice, result in words [2] | concentration at which autophagy induction (p62 degradation and LC3 lipidation) was observed [3] [µM] | number of small and large htt103Q aggregates [4] | activity in htt103Q aggregate assay [5] | concentration at which autophagic flux is significantly increased in cell culture [6] [µM]
1 | CC[C@H](C)[C@H](NC(=O)[C@H](Cc1c[nH]cn1)NC(=O)[C@H](Cc1ccccc1)NC(=O)[C@@H](CSCC(=O)O)NC(=O)[C@H](C)NC(=O)[C@H](CC(N)=O)NC(=O)[C@@H](CSCC(=O)O)NC(=O)[C@@H](NC(=O)CCC(=O)NCCOCCOCCCCCCCl)C(C)C)C(=O)N[C@@H](Cc1c[nH]c2ccccc12)C(=O)N[C@@H](Cc1c[nH]cn1)C(N)=O [HTag-DD5-neg, (HTag)-VcNAcFHIWH] ({NH(CH2CH2O)2(CH2)6Cl-Suc}-V[dC](Carboxymethyl)NA[dC](Carboxymethyl)FHIWH-NH2) | little inhibition of HTag-TAMRA fluorescence | – | – | – | – | –
2 | CC[C@H](C)[C@H](NC(=O)[C@H](Cc1c[nH]cn1)NC(=O)[C@H](Cc1ccccc1)NC(=O)[C@H]1CSCc2ccccc2CSC[C@@H](NC(=O)[C@@H](NC(=O)CCC(=O)NCCOCCOCCCCCCCl)C(C)C)C(=O)N[C@@H](CC(N)=O)C(=O)N[C@@H](C)C(=O)N1)C(=O)N[C@@H](Cc1c[nH]c2ccccc12)C(=O)N[C@@H](Cc1c[nH]cn1)C(N)=O [HTag-DD5-o, (HTag)-VcNAcFHIWH] ({NH(CH2CH2O)2(CH2)6Cl-Suc}-V[dC]NA[dC]FHIWH-NH2; linker 2-5 via oXylylene) | dose-dependent suppression of the HTag-TAMRA signal | – | – | – | – | –
3 | YGRKKRRQRRRGGTNVFNATFEIWHDGEFGT [Tat-Beclin 1] | – | induces autophagy when administered to mice at 20 mg/kg | 10 | decrease the number of small, but not large, htt103Q aggregates | no activity | 10
